Consider seven compounds from US8362248B2, “Substituted pyridinyl and pyrimidinyl derivatives as modulators of metabolism and the treatment of disorders related thereto” (Arena Pharmaceuticals, Inc., priority 2005, dated 2013).

Values after ≈ are worked out from the molar mass of the structure shown. Like-named read-outs stand apart in the source and are kept apart here.

In one series the test system is Male C57b1/6J mice. Description: Oral glucose tolerance test (oGTT) in mice. The series is classed as in vivo. Particulars: for lowering of blood glucose in oGTT (in words): mice after challenge with glucose; for Mean % Inhibition of Glucose Excursion: oGTT, mice, p.o. Here is the method: A. Oral Glucose tolerance test (oGTT)
[…] Compounds were delivered orally via a gavage needle (p.o., volume 10 mL/Kg). At time 0, levels of blood glucose were assessed using a glucometer (Elite XL, Bayer), and mice were administered either vehicle (20% hydroxypropyl-beta-cyclodextrin) or test compound. Thirty minutes after administration of test compound, levels of blood glucose were again assessed, and mice were administered dextrose orally at a dose of 3 g/Kg. Blood glucose measurements were then taken 20 min, 40 min, 60 min and 120 min after this time.

Another series deals with T1, RUP3 (Homo sapiens, UniProt Q8TDV5).
T1 construct: ID; No:2; expressed in transfected cells; host or cells: melanophores (cultured as per Potenza and Lerner 1992), electroporated
T1 sequence (Q8TDV5 with tags, fused parts or gaps): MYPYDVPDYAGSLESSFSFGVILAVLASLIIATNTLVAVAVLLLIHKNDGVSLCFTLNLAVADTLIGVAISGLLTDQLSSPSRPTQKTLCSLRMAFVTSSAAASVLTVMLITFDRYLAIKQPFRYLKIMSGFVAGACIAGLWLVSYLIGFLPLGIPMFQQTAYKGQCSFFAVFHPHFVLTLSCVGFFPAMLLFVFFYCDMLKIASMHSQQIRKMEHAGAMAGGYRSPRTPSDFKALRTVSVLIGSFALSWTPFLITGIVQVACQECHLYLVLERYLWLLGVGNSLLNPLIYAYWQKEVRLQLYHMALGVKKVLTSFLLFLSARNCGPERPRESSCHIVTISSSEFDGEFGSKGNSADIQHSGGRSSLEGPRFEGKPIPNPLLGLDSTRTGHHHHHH
The series is described as follows: RUP3 dose responses in melanophores (melanophore dispersion assay). Type of series: cell-based. As for the experimental part:
Melanophores are maintained in culture as reported by Potenza, M. N. and Lerner, M. R., in Pigment Cell Research, Vol. 5, 372-378, 1992 and transfected with the RUP3 expression vector (pCMV) using electroporation. Following electroporation, the transfected cells are plated into 96 well plates for the assay. The cells are then allowed to grow for 48 hours in order to both recover from the electroporation procedure and attain maximal receptor expression levels.
On the assay day, the growth medium on the cells is replaced with serum-free buffer containing 10 nM melatonin. The melatonin acts via an endogenous Gi-coupled GPCR in the melanophores to lower intracellular cAMP levels. In response to lowered cAMP levels, the melanophores translocate their pigment to the center of the cell. The net effect of this is a significant decrease in the absorbance reading of the cell monolayer in the well, measured at […].
After a 1-hour incubation in melatonin, the cells become completely pigment-aggregated. At this point a baseline absorbance reading is collected. Serial dilutions of test compounds are then added to the plate and compounds that stimulate RUP3 produce increases in intracellular cAMP levels. In response to these increased cAMP levels, the melanophores translocate their pigment back into the cell periphery. After one hour, stimulated cells are fully pigment-dispersed. The cell monolayer in the dispersed state absorbs much more light in the 600-650 nm range. The measured increase in absorbance compared to the baseline reading allows one to quantitate the degree of receptor stimulation and plot a dose-response curve.
The compounds in the above examples were screened using the melanophore dispersion assay, as described above.

Series [1] is described as follows: Rat dose-range PK study (dose escalation pharmacokinetics). The series is classed as in vivo. As for the experimental part:
Animal, Compound Formulation, Dosing, and Blood Sample Collection: […]
Male SD rats (250-300 g) were purchased from Charles River Laboratory; upon reciept, animals were placed under light-dark cycle (6:30 am-6:30 pm lights on). They were allowed ad libitum access to water and 4 pieces of food daily (Purina Meals Rodent Diet, Product Number 5001).
Compound formulations were prepared as following: The IV injection formulation was prepared in 20% hydroxypropyl-beta-cyclodextrin with concentration of […]. The PO formulations were prepared in 0.5% hydroxypropyl methylcellulose with concentrations of […]. […]
Plasma samples were prepared as follows. […] Calibration standards were typically prepared in the range of 2.0 ng/mL to 10 μg/mL with linear regression for quantitation. […]
Results were calculated by noncompartmental analysis using WinNonlin Pro version 3.1 based on plasma concentration—time profiles for individual animals. Plasma levels were determined as described above and the oral and intravenous area under the concentration vs. time curve (AUC was calculated using the linear trapezoidal rule up to the last measurable concentration and was then extrapolated to infinity) were compared to determine the % bioavailability (% F) by the following formula: Dose (IV)*AUC (oral)/Dose (oral)*AUC (IV). […]

Another series in a line: Aqueous solubility. Particulars: aqueous medium, aqueous buffer. Type of series: physicochemical.
The mark [2] stands for this setting: melanophore dispersion assay, read-out: RUP3 (EC50).

By EC50 is commonly meant the concentration that produces a half-maximal response. Regarding `COc1c(Nc2ccc(S(C)(=O)=O)nc2C)ncnc1OC1CCN(C(=O)OC(C)C)CC1` [Compound 84, 4-[6-(6-Methanesulfonyl-2-methyl-pyridin-3-ylamino)-5-methoxy-pyrimidin-4-yloxy]-piperidine-1-carboxylic acid isopropyl ester], the “reduction in AUC (blood glucose, oGTT)” value was 38% in the series on Male C57b1/6J mice (Experiment 1, 30 mpk) and 84% in the series on Male C57b1/6J mice (Experiment 2, 30 mpk). Besides, the “lowering of blood glucose in oGTT (in words)” value with Male C57b1/6J mice is listed as “able to lower blood glucose”. The compound also showed an EC50 on RUP3 of 3.55 nM. In addition, the “agonist activity at the RUP3 receptor (in words)” value at RUP3 was “potent agonist”. In addition, the “dose escalation pharmacokinetics, AUC vs dose (in words)” value is reported as “linear dose escalation pharmacokinetics” in series [1] (FIG. 5) and “essentially linear dose escalation pharmacokinetics” in series [1] (FIG. 5, listed as 4-[6-(6-Methanesulfonyl-2-methyl-pyridin-3-ylamino)-5-methoxy-pyrimidin-4-yloxy]).
Consider `COc1c(Oc2ccc(S(C)(=O)=O)cc2F)ncnc1OC1CCN(C(=O)OC(C)C)CC1` [Compound 76, 4-[6-(2-Fluoro-4-methanesulfonyl-phenoxy)-5-methoxy-pyrimidin-4-yloxy]-piperidine-1-carboxylic acid isopropyl ester], for which the EC50 at RUP3 (setting [2]) stood at 2.51 nM.
On the same count and under the same terms, the value for `COc1c(Nc2ccc(S(C)(=O)=O)cc2F)ncnc1OC1CCN(C(=O)OC(C)C)CC1` [Compound 24, 4-[6-(2-Fluoro-4-methanesulfonyl-phenylamino)-5-methoxy-pyrimidin-4-yloxy]-piperidine-1-carboxylic acid isopropyl ester] was 0.49 nM.
As for `CCOc1cc(F)c(Nc2ncnc(OC3CCN(C(=O)OC(C)C)CC3)c2OC)cc1F` [Compound 75, 4-[6-(4-Ethoxy-2,5-difluoro-phenylamino)-5-methoxy-pyrimidin-4-yloxy]-piperidine-1-carboxylic acid isopropyl ester], the “lowering of blood glucose in oGTT (in words)” value in the series on Male C57b1/6J mice was “lowered blood glucose in a dose-dependent manner”. In addition, the “Mean % Inhibition of Glucose Excursion” value with Male C57b1/6J mice (dose 3 mg/Kg) is 22%; in the series with Male C57b1/6J mice (dose 10 mg/Kg) it was 34%.
In general, solubility refers to the concentration that dissolves in the medium under given conditions. A lower solubility goes with little dissolved substance. In the case of `COc1c(OC2CCN(C(=O)OC(C)C)CC2)ccnc1Nc1ccc(S(C)(=O)=O)cc1F` [Compound 77, 4-[2-(2-Fluoro-4-methanesulfonyl-phenylamino)-3-methoxy-pyridin-4-yloxy]-piperidine-1-carboxylic acid isopropyl ester], the solubility in the series “Aqueous solubility” (pH=2) is 1120 µg/mL (≈ 2330 µM); in the series “Aqueous solubility” (pH=5), 190 µg/mL (≈ 395 µM).
With `COc1c(Nc2ccc(NCCO)nc2C)ncnc1OC1CCN(C(=O)OC(C)C)CC1` [Compound 78, 4-{6-[6-(2-Hydroxy-ethylamino)-2-methyl-pyridin-3-ylamino]-5-methoxy-pyrimidin-4-yloxy}-piperidine-1-carboxylic acid isopropyl ester], the values for the solubility in the series “Aqueous solubility” (pH=2) and in “Aqueous solubility” (pH=5) were 1450 µg/mL (≈ 3150 µM) and 380 µg/mL (≈ 825 µM), respectively.
With `COc1cc(S(C)(=O)=O)ccc1Nc1ncnc(OC2CCN(C(=O)OC(C)C)CC2)c1OC` [Compound 10, 4-[6-(4-Methanesulfonyl-2-methoxy-phenylamino)-5-methoxy-pyrimidin-4-yloxy]-piperidine-1-carboxylic acid isopropyl ester], the EC50 on RUP3 (setting [2]) was 26 nM.
